This is an account of results in patent US5229368A, “Composition for prevention and (or) treatment of Aids” (Fujisawa Pharmaceutical Co., Ltd., priority 1987, dated 1993).

The test system of series [1] is Friend leukemia virus. Nature of the series: Test 1: splenomegaly by Friend leukemia virus in mice (severe infection). The format is in vivo, C3H/HeN mice. As for the experimental part: (§1) Animals: Male C3H/HeN strain mice aged 5 weeks were used in groups of 10. The animals were housed in an isolation room at 21°-25° C. and supplied with food and water at libitum.
Virus and Induction of splenomegaly: Friend leukemia virus (FLV) was prepared as a 10% suspension of infected C3H/HeN spleen in Hank's balanced saline and was originally supplied by Kitazato University. Following centrifugation (7,000 rpm for 20 mins.) the virus preparation was frozen and stored at -70° C. 0.2 ml/head of FLV diluted 2-, 5-, or 10-fold to induce infection of varying severity was challenged intraperitoneally in mice. […]

Series [2] concerns Friend leukemia virus. As to the kind of experiment: Test 2: splenomegaly by FLV in mice, same method as Test 1 with other doses. Type of series: in vivo, C3H/HeN mice. Conditions: day 14. As to the method: as §1
Virus and Induction of splenomegaly: Friend leukemia virus (FLV) was prepared as a 10% suspension of infected C3H/HeN spleen in Hank's balanced saline and was originally supplied by Kitazato University. Following centrifugation (7,000 rpm for 20 mins.) the virus preparation was frozen and stored at -70° C. 0.2 ml/head of FLV diluted 2-, 5-, or 10-fold to induce infection of varying severity was challenged intraperitoneally in mice.
Dosing schedules: FK-565 was given intravenously or orally in doses of 0.01 mg/kg to 1 mg/kg 4 hours after challenge and once on days 3, 7, 11 (total 4 doses).

For series [3], the system named is Friend leukemia virus. Nature of the series: Test 3: survival rate of mice in lethal FLV infection. The format is in vivo. Conditions: 42 days. As for the experimental part:
Friend leukemia virus FLV) was prepared as a 20% suspension of infected C3H/HeN spleen in Hank's balanced saline and 0.2 ml/head of the FLV preparation was challenged intraperitoneally to mice in groups of 12. The viruses were challenged in amounts large enough to cause death within a short time.
FK-565 (1, 0.01 mg/kg) was given intravenously once a day on days 1, 4, 7, 11, 14, 18, 21 and 25 (total: 8 doses).
The mice were given the two drugs according to the same dosing schedules.

Series [4] deals with Rauscher murine leukemia virus complex(RLV). Conditions: mice infected with RLV; cited from earlier work.
For series [5] the following is noted: therapeutic dose of AZT; cited from earlier work.
Setting [6] is: FK-565 0.01 mg/kg i.v. alone, day 14.
Setting [7] is: FK-565 0.1 mg/kg i.v. alone, day 14.
Setting [8] is: FK-565 0.1 mg/kg p.o. alone, day 14.
Where [9] appears, read: FK-565 0.01 mg/kg i.v., AZT 0 mg/kg.
Where [10] appears, read: FK-565 1 mg/kg i.v., AZT 0 mg/kg.

In the case of `CCCCCCC(=O)N[C@H](CCC(=O)N[C@@H](CCC[C@@H](N)C(=O)O)C(=O)N[C@H](C)C(=O)O)C(=O)O` [FK-565], the Inhibition % is listed as 36.4% in the series with Friend leukemia virus [1] (setting [6]); 37.0% in the series on Friend leukemia virus [1] (setting [7]); 27.8% in the series with Friend leukemia virus [1] (setting [8]); 46.5% with Friend leukemia virus [1] (FK-565 1 mg/kg i.v. alone, day 14); 38.9% in the series on Friend leukemia virus [1] (FK-565 1 mg/kg p.o. alone, day 14). Further, the Spleen weight came out at 1047.0 ± 106.1 mg in the series on Friend leukemia virus [1] (setting [6]); 1038.0 ± 176.8 mg in the series on Friend leukemia virus [1] (setting [7]); 1133.0 ± 170.0 mg with Friend leukemia virus [1] (setting [8]); 947.0 ± 124.1 mg in the series on Friend leukemia virus [1] (FK-565 1 mg/kg i.v. alone, 4 doses, day 14); 984.0 ± 144.8 mg with Friend leukemia virus [1] (FK-565 1 mg/kg p.o. alone, 4 doses, day 14). The figures for the “(%) inhibition of splenomegaly” value in the series on Friend leukemia virus [2] (setting [9]) and in the series with Friend leukemia virus [2] (setting [10]) were 19.6% and 55.3%, respectively. Further, the results for the Spleen in the series on Friend leukemia virus [2] (setting [9]) and in the series on Friend leukemia virus [2] (setting [10]) were 750 ± 119.0 mg and 487 ± 47.3 mg, respectively. Also, the survival rate in the series on Friend leukemia virus [3] (FK-565 0.01 mg/kg/time i.v., AZT 0) stood at 8; in the series on Friend leukemia virus [3] (FK-565 1 mg/kg/time i.v., AZT 0), 17.

Regarding `Cc1cn([C@H]2C[C@H](N=[N+]=[N-])[C@@H](CO)O2)c(=O)[nH]c1=O` [AZT, 3'-Azido-3'-deoxythymidine], in series [4], the “survival time in infected mice” value is recorded as “prolong significantly the survival time”. Moreover, the Inhibition % is 24.8% with Friend leukemia virus [1] (AZT 5 mg/kg i.p. alone, day 14) and 38.1% in the series with Friend leukemia virus [1] (AZT 20 mg/kg i.p. alone, day 14). Besides, the Spleen weight in the series with Friend leukemia virus [1] (AZT 5 mg/kg i.p. alone, day 14) is 1107.8 ± 158.3 mg; in the series with Friend leukemia virus [1] (AZT 20 mg/kg i.p. alone, 27 doses, FLV 2-fold dilution, 14 days after infection) it was 944.0 ± 104.9 mg. The “(%) inhibition of splenomegaly” value in the series with Friend leukemia virus [2] (AZT 0.63 mg/kg i.p. alone) is on record as 33.3%; in the series on Friend leukemia virus [2] (AZT 2.5 mg/kg i.p. alone), 38.3%; in the series with Friend leukemia virus [2] (AZT 10 mg/kg i.p. alone), 49.3%; in the series with Friend leukemia virus [2] (AZT 40 mg/kg i.p. alone), 81.1%; in the series with Friend leukemia virus [2] (AZT 160 mg/kg i.p. alone) it was 97.4%. In addition, the Spleen with Friend leukemia virus [2] (AZT 0.63 mg/kg i.p. alone) is reported as 633 ± 67.6 mg; with Friend leukemia virus [2] (AZT 2.5 mg/kg i.p. alone), 605 ± 134.9 mg; in the series on Friend leukemia virus [2] (AZT 10 mg/kg i.p. alone), 519 ± 130.6 mg; in the series on Friend leukemia virus [2] (AZT 40 mg/kg i.p. alone) it was 267 ± 51.6 mg. In addition, in series [5], the side effects entry is “anemia, leukopenia, neutropenia and occasional thrombocytopenia”. The survival rate in the series on Friend leukemia virus [3] (AZT 4 mg/kg/time i.p., FK-565 0) stood at 0; with Friend leukemia virus [3] (AZT 20 mg/kg/time i.p., FK-565 0) it was 25; with Friend leukemia virus [3] (AZT 100 mg/kg/time i.p., FK-565 0), 50.
